Assay results as given in paper PMC6471559, “Design and Synthesis of a New Soluble Natural β-Carboline Derivative for Preclinical Study by Intravenous Injection” (International Journal of Molecular Sciences, 2019).
“Also recorded” adds a separate entry of the source. Where two headings read alike, the source gives them in different places.

Tests used:
[1] = Kinetic solubility by HPLC, Multiscreen Solubility Filter plate; assay type: physicochemical
Description: From those data, we chose an isopentyl substituent on position 7, which is suitable to decrease neurotoxicity of the targeted compound. We selected a propyl group on position 9 as a short alkyl substituent, seems to be suitable to maintain good antiproliferative properties. […] This high activity can result in low administered doses, thus counter-balancing the low LD50 associated with this N^2 substitution. […] It has been shown that pyridine scaffold in lead compounds can result in higher solubility because of the presence of the heteroatom. Finally, the pyridyl group offers good potential for salification and/or cocrystallization which can also improve pharmacological properties.
The kinetic solubility of compounds 1a and 1b was determined by HPLC method, using a Multiscreen Solubility Filter 96-well plate (Merck®) using a test adapted from. First, the calibration curve was performed from five solutions (3.13 µM 12.5 µM, 50 µM, 200 µM and 500 µM, with a final DMSO concentration of 5%). The kinetic solubility was measured in triplicate at physiological pH in phosphate buffer (0.05 M Na2HPO4; 0.02 M NaCl adjusted at physiological pH using solution NaH2PO4 0.05 M; NaCl 0.02 M) and in acidic condition (0.2 M HCl, 0.03 M NaCl adjusted at pH = 1.1 using HCl 37%). […]

[2] = Thermodynamic solubility by UV absorbance at 330 nm after 72 h stirring at 37 °C; assay type: physicochemical; conditions: thermodynamic from solid
Method: (§1) Compound 2 solubility and stability measurements were performed at 37 °C at pH 1.1 (0.02 M NaCl, pH 1.1 obtained by HCl addition) to mimic gastric conditions, at pH 7.4 (0.050 M Na2HPO4/NaH2PO4 and 0.02 M NaCl, pH 7.4) and simulated injection vehicle (0.9% NaCl and 0.1% Polysorbate 80). Stability measurements were performed from 0 h to 72 h after complete solubilization. […] At pH 1.1 as well as in the simulated injection vehicle, a higher solubility is observed in comparison with the solubility at physiological pH. Solubility is 1.06 ± 0.08 mg/mL at physiological pH, 1.62 ± 0.13 mg/mL at acidic pH, as well as 1.87 ± 0.07 mg/mL in a simulated vehicle injection (Table 1).
Solubility of compound 2 was evaluated at 37 °C, at pH 1.1 (0.02 M NaCl, pH 1.1 obtained by HCl addition), at physiological pH (buffer 0.050 M Na2HPO4/NaH2PO4 and 0.02 M NaCl, pH 7.4) as well as in a simulated injection vehicle (0.9% NaCl and 0.1% Polysorbate 80 pH 7.4). To this aim, an excess of compound 2 was placed in the […] media in a 24 well plate and stirred (1200 rpm) 72 h at 37 °C after hermetic sealing. After 72 h of stirring, the solutions were filtered (0.2 µm) and diluted 100 times. The solubility was determined by UV absorbance at 330 nm using a calibration curve (five points in a range of concentration between 0.005 and 0.1 mg/mL). All measurements were made in triplicate and adequate dissolutions were performed to stay in Beer-Lambert conditions.

[3] = Stability in three media by UV spectra from 0 h to 72 h at 37 °C; assay type: physicochemical; conditions: pH 1.1, pH 7.4 and simulated injection vehicle (0.9% NaCl, 0.1% Polysorbate 80)
Method: as §1
We have evaluated the stability of compound 2 in three different conditions (at pH 1.1, at pH 7.4 and in a simulated injection vehicle) for three days and at 37 °C because it is compatible with physiological temperature and because a higher temperature can result in a better solubilization. We observe that the compound remains stable for at least three days in the three different solutions tested, which allowed determination of its thermodynamic solubility. […]

[4] = test system: A549 human lung carcinoma cells; test: MTT antiproliferative assay, 72 h; assay type: cell-based
Method: (§2) Antiproliferative activity of compound 2 was evaluated using a colorimetric MTT assay for 72 h. […] Compound 2 activity was studied on different cancer cell lines: two glioma cell lines (T98G, Hs683), one breast cancer cell line (MDA-MB-231), one lung cancer cell line (A549) and one pancreatic cell line (PANC-1). A mean submicromolar antiproliferative activity was observed (Table 2). […] Cytotoxicity of compound 2 against normal cells (epithelial breast cells MCF-10a) vs. cancer cells (MDA-MB-231) was also determined. […] MDA-MB-231 human breast cancer cells, T98G human brain cancer cells and PANC-1 human epithelioid carcinoma were maintained in culture in 75-cm^2 polystyrene flasks (Corning®, […], Luxembourg) with respectively 15 mL of Dulbecco's modified Eagle's medium (#341966-029 DMEM 1X; ThermoFisher, Gibco®, Geel, Belgium) containing 4.5g/L of glucose, 10% of fetal calf serum (#10270 ThermoFisher, Gibco®, Geel, Belgium) and supplemented with penicillin-streptomycin 10,000 U/mL (#15140 ThermoFisher, Gibco®, Geel, Belgium) incubated under an atmosphere containing 5% CO2. HS683 human glioma and A549 human lung carcinoma were maintained in culture in 75-cm^2 polystyrene flasks (Corning®) with respectively 15 mL of Roswell Park Memorial Institute medium (Gibco® RPMI 1640, Thermofisher, Geel, Belgium) containing 10% of fetal calf serum (#10270 ThermoFisher, Gibco®, Geel, Belgium) and supplemented with penicillin-streptomycin 10,000 U/mL (#15140 ThermoFisher, Gibco®, Geel, Belgium), glutamine (200 mM) and HEPES (25 mM) incubated under an atmosphere containing 5% CO2. MCF-10-a human non-tumorigenic breast epithelial cells were maintained in 75-cm^2 polystyrene flasks (Corning®, […], Luxembourg) with 15 mL of Gibco®, Geel, Belgium) F-12 Nutrient Mixture (Ham) containing 5% of horse serum (Invitrogen®) supplemented with 10 μg/mL of human Insulin (Sigma®, Schnelldorf, Germany), 0.5 μ/mL of Hydrocortisone (Sigma®, Schnelldorf, Germany) and 20 ng/mL of Epidermal Growth Factor (Peprotech®, London, UK) incubated under an atmosphere containing 5% CO2. The cell lines were obtained from the American Type Culture Collection (ATCC, Manassas, VA). Antiproliferative activity and overall cytotoxicity of compound 2 on cancer and normal cells lines (breast cancer cell line MDA-MB231 and non-tumorigenic breast epithelial cells (MCF-10a) were determined in vitro using colorimetric MTT (Sigma-Aldrich (Schnelldorf, Germany)) solution (0.5 mg/mL in PBS) assay according to a protocol adapted from. Cells were seeded in 96-well culture plate (1200 cells/well 1 day before incubation and were treated for 72 h in culture medium at 37 °C with different concentrations of compound 2 ranging from 1 nM to 10 μM, with semilog concentration increasing of the compound. The yellow MTT product was converted to a purple formazan derivative through mitochondrial enzymatic reduction. At the end of the incubation of 4 h, the plate was centrifugated at 1200 rpm for 5 min and the MTT solution was decanted. Then, blue formazan was solubilized with DMSO and absorbance at 570 nm, which is directly proportional to the number of metabolic active cells, is determined. Experiments were carried out in sextuplicates.

Hs683 human glioma cells = test: MTT antiproliferative assay, 72 h; assay type: cell-based
Method: as §2

[5] = test system: MDA-MB-231 human breast cancer cells; test: MTT antiproliferative assay, 72 h; assay type: cell-based
Method: as §2

[6] = test system: PANC-1 human epithelioid carcinoma cells; test: MTT antiproliferative assay, 72 h; assay type: cell-based
Method: as §2

[7] = test system: T98G human brain cancer cells; test: MTT antiproliferative assay, 72 h; assay type: cell-based
Method: as §2

[8] = test system: A549, MDA-MB-231, PANC-1, T98G and Hs683 cell lines; test: MTT antiproliferative assay, 72 h, summary over five cancer cell lines; assay type: cell-based; conditions: Homo sapiens, A549, MDA-MB-231, PANC-1, T98G and Hs683, MTT, read-out: IC50 range over five cancer cell lines
Method: (§3) Antiproliferative activity of compound 2 was evaluated using a colorimetric MTT assay for 72 h. […] Compound 2 activity was studied on different cancer cell lines: two glioma cell lines (T98G, Hs683), one breast cancer cell line (MDA-MB-231), one lung cancer cell line (A549) and one pancreatic cell line (PANC-1). A mean submicromolar antiproliferative activity was observed (Table 2). […] Cytotoxicity of compound 2 against normal cells (epithelial breast cells MCF-10a) vs. cancer cells (MDA-MB-231) was also determined. […] Antiproliferative activity and overall cytotoxicity of compound 2 on cancer and normal cells lines (breast cancer cell line MDA-MB231 and non-tumorigenic breast epithelial cells (MCF-10a) were determined in vitro using colorimetric MTT (Sigma-Aldrich (Schnelldorf, Germany)) solution (0.5 mg/mL in PBS) assay according to a protocol adapted from. Cells were seeded in 96-well culture plate (1200 cells/well 1 day before incubation and were treated for 72 h in culture medium at 37 °C with different concentrations of compound 2 ranging from 1 nM to 10 μM, with semilog concentration increasing of the compound. […] Then, blue formazan was solubilized with DMSO and absorbance at 570 nm, which is directly proportional to the number of metabolic active cells, is determined. […]

[9] = test system: MCF-10a human non-tumorigenic breast epithelial cells; test: MTT cytotoxicity on normal cells vs. cancer cells; assay type: cell-based; conditions: in the IC50 concentration range
Method: as §3

For `Cc1nccc2c1[nH]c1cc(OCCC(C)C)ccc12` [1a, 1-methyl-7-(3-methylbutoxy)-9H-pyrido[3,4-b]indole], the “Kinetic solubility at low pH” value ([1]; pH 1.1) was “good solubility at low pH”.

With `CCCn1c2cc(OCCC(C)C)ccc2c2ccnc(C)c21` [1b, 1-methyl-7-(3-methylbutoxy)-9-propyl-9H-pyrido[3,4-b]indole] the “Kinetic solubility at low pH” value ([1]; acidic condition pH 1.1, 5% DMSO, preliminary data, values only in Figure 2B) was “good solubility at low pH”.

Compound `CCCn1c2cc(OCCC(C)C)ccc2c2cc[n+](Cc3ccccn3)c(C)c21.[Br-]` [compound 2, 1-methyl-7-(3-methylbutoxy)-9-propyl-2-[(pyridin-2-yl)methyl]-9H-pyrido[3,4-b]indol-2-ium bromide] has a solubility thermodynamic at 72 h ([2]; 0.02 M NaCl solution acidified with HCl, pH 1.1, simulated gastric fluid, pH 1.1 (0.02 M NaCl, HCl), read-out: Mean thermodynamic solubility at 37 °C) of 1620 ± 130 µg/mL, a solubility thermodynamic at 72 h ([2]; 0.02 M NaCl solution acidified with HCl, pH 1.1, simulated gastric fluid, pH 1.1 (0.02 M NaCl, HCl), read-out: Thermodynamic solubility at 37 °C replicate 1) of 1460 ± 10 µg/mL and a solubility thermodynamic at 72 h ([2]; 0.02 M NaCl solution acidified with HCl, pH 1.1, simulated gastric fluid, pH 1.1 (0.02 M NaCl, HCl), read-out: Thermodynamic solubility at 37 °C replicate 2) of 1630 ± 20 µg/mL. For the same compound, the solubility thermodynamic at 72 h ([2]; 0.02 M NaCl solution acidified with HCl, pH 1.1, simulated gastric fluid, pH 1.1 (0.02 M NaCl, HCl), read-out: Thermodynamic solubility at 37 °C replicate 3) was 1770 ± 10 µg/mL, the solubility thermodynamic at 72 h ([2]; phosphate buffer, pH 7.4, aqueous buffer, pH 7.4 phosphate buffer, read-out: Mean thermodynamic solubility at 37 °C) was 1060 ± 80 µg/mL and the solubility thermodynamic at 72 h ([2]; phosphate buffer, pH 7.4, aqueous buffer, pH 7.4 phosphate buffer, read-out: Thermodynamic solubility at 37 °C replicate 1) was 980 ± 10 µg/mL. For the same compound, the solubility thermodynamic at 72 h ([2]; phosphate buffer, pH 7.4, aqueous buffer, pH 7.4 phosphate buffer, read-out: Thermodynamic solubility at 37 °C replicate 2) was 990 ± 10 µg/mL, the solubility thermodynamic at 72 h ([2]; phosphate buffer, pH 7.4, aqueous buffer, pH 7.4 phosphate buffer, read-out: Thermodynamic solubility at 37 °C replicate 3) was 1150 ± 10 µg/mL and the solubility thermodynamic at 72 h ([2]; simulated injection vehicle, pH 7.4, aqueous with cosolvent or surfactant or cyclodextrin, injection vehicle (0.9% NaCl and 0.1% Polysorbate 80), read-out: Mean thermodynamic solubility at 37 °C) was 1870 ± 70 µg/mL. For the same compound, the solubility thermodynamic at 72 h ([2]; simulated injection vehicle, pH 7.4, aqueous with cosolvent or surfactant or cyclodextrin, injection vehicle (0.9% NaCl and 0.1% Polysorbate 80), read-out: Thermodynamic solubility at 37 °C replicate 1) was 1950 ± 10 µg/mL, the solubility thermodynamic at 72 h ([2]; simulated injection vehicle, pH 7.4, aqueous with cosolvent or surfactant or cyclodextrin, injection vehicle (0.9% NaCl and 0.1% Polysorbate 80), read-out: Thermodynamic solubility at 37 °C replicate 2) was 1900 ± 40 µg/mL and the solubility thermodynamic at 72 h ([2]; simulated injection vehicle, pH 7.4, aqueous with cosolvent or surfactant or cyclodextrin, injection vehicle (0.9% NaCl and 0.1% Polysorbate 80), read-out: Thermodynamic solubility at 37 °C replicate 3) was 1770 ± 10 µg/mL. The “Time for which the compound is stable (no modification of UV spectra)” value [3] was “at least 72 h”, the “Cytostatic at IC50” value ([4]; A549, metabolic activity at IC50 compared with T = 0 h) was “cytostatic behavior; also recorded: cytostatic effect” and the IC50 ([4]; Homo sapiens, A549, MTT, 72 h) was 261 nM. For the same compound, the IC50 (Hs683 human glioma cells) was 305 nM, the IC50 (Hs683 human glioma cells; Homo sapiens, Hs 683, 72 h) was < 500 nM and the IC50 ([5]; Homo sapiens, MDA-MB-231, MTT, 72 h) was 449 nM. For the same compound, the “Cytostatic at IC50” value ([5]; MDA-MB-231, metabolic activity at IC50 compared with T = 0 h) was “cytostatic behavior; also recorded: cytostatic effect”, the IC50 ([6]; Homo sapiens, PANC-1, MTT, 72 h) was 350 nM and the “Cytostatic at IC50” value ([6]; PANC-1, metabolic activity at IC50 compared with T = 0 h) was “No”. For the same compound, the IC50 ([7]; Homo sapiens, MTT, 72 h) was 2190 nM, the “Cytostatic at IC50” value ([7]; metabolic activity at IC50 compared with T = 0 h) was “No” and the IC50 [8] was 200 to 2000 nM. For the same compound, the “Activity on normal cells (MCF-10a) vs. cancer cells (MDA-MB-231)” value [9] was “more active on a cancer cell line than on normal cells” and the “Activity on normal cells (MCF-10a) vs. cancer cells (MDA-MB-231)” value ([9]; listed as 1-methyl-7-(3-methylbutoxy)-9-propyl-2-[(pyridin-2-yl)methyl]-9H-pyrido[3,4-b]in) was “more active on cancer cells (MDA-MB-231) than on normal cells (MCF-10a)”.
